# From PMC10218303, “Novel Polymyxin-Inspired Peptidomimetics Targeting the SARS-CoV-2 Spike:hACE2 Interface” (International Journal of Molecular Sciences, 2023)
# Where two headings read alike, the source gives them in different places. Bridge positions count the residues as written; N and C are the ends. Square brackets hold non-standard residues; d marks the D form. Peptide text beside a SMILES is read from it. Dab = NCC[C@H](N)C(=O)O
# Tests used:
# [1] = in vitro; conditions: human
# [2] = in vitro; conditions: human; remark: listed apart in the source
# [3] = system: SARS-CoV-2 (strain Delta); conditions: for IC50: strain Delta, 2 h
# [4] = system: SARS-CoV-2 (strain 20A.EU2); conditions: strain 20A.EU2, 2 h
# [5] = amide bond, 23-membered ring
# [6] = the molecule shown is the open-chain precursor
Molecule,CC50 [1] [µM],CC50 [2] [µM],IC50 [3] [µM],IC50 [4] [µM],further results
CC(=O)N[C@@H](CCC(=O)O)C(=O)N[C@H](C(=O)N[C@@H](CCN)C(=O)N[C@H]1CCNC(=O)[C@H](Cn2cc(CC(=O)O)nn2)NC(=O)[C@H](CCN)NC(=O)[C@H](CCN)NC(=O)[C@H](CC(C)C)NC(=O)[C@@H](Cc2ccccc2)NC(=O)[C@H](Cc2ccc(O)cc2)NC1=O)[C@@H](C)O [monomer 9],> 50,> 50,> 50,> 50,–
Ac-Leu-Thr(tBu)-Dab(Boc)-Dab(H-Ala(N3))-Ile-dPhe-Tyr(tBu)-Dab(Boc)-Dab(Boc)-OH?,–,–,–,–,"ring closure, isolated yield [5, 6]: 74%"
Ac-Leu-Thr(tBu)-Dab(Boc)-Dab(H-Ala(N3))-Ile-dPhe-Tyr(tBu)-Hse(Trt)-Hse(Trt)-OH?,–,–,–,–,"ring closure, isolated yield [5, 6]: 90%"
CC[C@H](C)[C@@H]1NC(=O)[C@@H](NC(=O)[C@H](CCN)NC(=O)[C@@H](NC(=O)[C@H](CC(C)C)NC(C)=O)[C@@H](C)O)CCNC(=O)[C@H](Cn2cc(CCC(=O)N[C@@H](CCN)C(=O)N[C@H]3CCNC(=O)[C@H]([C@@H](C)O)NC(=O)[C@H](CCN)NC(=O)[C@H](Cc4c[nH]c5ccccc45)NC(=O)[C@H](CC(C)C)NC(=O)[C@@H](Cc4ccccc4)NC(=O)[C@H](Cc4ccc(O)cc4)NC3=O)nn2)NC(=O)[C@H](CCN)NC(=O)[C@H](CCN)NC(=O)[C@H](Cc2ccc(O)cc2)NC(=O)[C@@H](Cc2ccccc2)NC1=O [dimer 4],> 50,> 50,> 50,> 50,–
CC[C@H](C)[C@@H]1NC(=O)[C@@H](NC(=O)[C@H](CCN)NC(=O)[C@@H](NC(=O)[C@H](CC(C)C)NC(C)=O)[C@@H](C)O)CCNC(=O)[C@H](Cn2cc(CC(=O)O)nn2)NC(=O)[C@H](CCN)NC(=O)[C@H](CCN)NC(=O)[C@H](Cc2ccc(O)cc2)NC(=O)[C@@H](Cc2ccccc2)NC1=O [monomer 2],> 50,> 50,> 50,> 50,–
CC(=O)N[C@@H](CCC(=O)O)C(=O)N[C@H](C(=O)N[C@@H](CCN)C(=O)N[C@H]1CCNC(=O)[C@H](Cn2cc(CC(=O)O)nn2)NC(=O)[C@H](CCN)NC(=O)[C@H](CCN)NC(=O)[C@H](Cc2ccc(O)cc2)NC(=O)[C@@H](Cc2ccccc2)NC(=O)[C@H](Cc2ccc(O)cc2)NC1=O)[C@@H](C)O [monomer 6],> 50,> 50,> 50,> 50,–
CC(C)C[C@@H]1NC(=O)[C@@H](Cc2ccccc2)NC(=O)[C@H](Cc2cn(C(=O)OC(C)(C)C)c3ccccc23)NC(=O)[C@@H](NC(=O)[C@H](CCNC(=O)OC(C)(C)C)NC(=O)OCC2c3ccccc3-c3ccccc32)CCNC(=O)[C@H]([C@@H](C)OC(C)(C)C)NC(=O)[C@H](CCNC(=O)OC(C)(C)C)NC(=O)[C@H](Cc2cn(C(=O)OC(C)(C)C)c3ccccc23)NC1=O,–,–,–,–,"ring closure, isolated yield ([5]; from Fmoc-Dab(Boc)-Dab-Trp(Boc)-dPhe-Leu-Trp(Boc)-Dab(Boc)-Thr(tBu)-OH?, HATU/HOAt/2,4,6-collidine, DCM/DMF, 0.7 mM): 70%"
CC(C)C[C@H](NC(=O)OCC1c2ccccc2-c2ccccc21)C(=O)N[C@H]1CCNC(=O)[C@H]([C@@H](C)OC(C)(C)C)NC(=O)[C@H](CCNC(=O)OC(C)(C)C)NC(=O)[C@H](CCNC(=O)OC(C)(C)C)NC(=O)[C@H](CC(C)C)NC(=O)[C@@H](Cc2ccccc2)NC(=O)[C@H](Cc2cn(C(=O)OC(C)(C)C)c3ccccc23)NC1=O,–,–,–,–,"ring closure, isolated yield ([5]; from Fmoc-Leu-Dab-Trp(Boc)-dPhe-Leu-Dab(Boc)-Dab(Boc)-Thr(tBu)-OH?, HATU/HOAt/2,4,6-collidine, DCM/DMF, 0.7 mM): 78%"
CC[C@H](C)[C@@H]1NC(=O)[C@@H](NC(=O)[C@H](CCNC(=O)OC(C)(C)C)NC(=O)[C@@H](NC(=O)[C@H](CC(C)C)NC(C)=O)[C@@H](C)OC(C)(C)C)CCNC(=O)[C@H](CN=[N+]=[N-])NC(=O)[C@H](CCNC(=O)OC(C)(C)C)NC(=O)[C@H](CCNC(=O)OC(C)(C)C)NC(=O)[C@H](Cc2ccc(OC(C)(C)C)cc2)NC(=O)[C@@H](Cc2ccccc2)NC1=O,–,–,–,–,"ring closure, isolated yield ([5]; from Ac-Leu-Thr(tBu)-Dab(Boc)-Dab(H-azidoAla)-Ile-dPhe-Tyr(tBu)-Dab(Boc)-Dab(Boc)-OH, HATU/HOAt/2,4,6-collidine, DCM/DMF 14:1, 0.7 mM): 74%"
CC(C)C[C@@H]1NC(=O)[C@@H](Cc2ccccc2)NC(=O)[C@H](Cc2c[nH]c3ccccc23)NC(=O)[C@@H](NC(=O)[C@@H](N)CC(C)C)CCNC(=O)[C@H]([C@@H](C)O)NC(=O)[C@H](CCN)NC(=O)[C@H](CCN)NC1=O [monomer 5] (H-L[Dab]W[dF]L[Dab][Dab]T; lactam 2-C),> 50,> 50,> 50,> 50,–
Ac-Glu(tBu)-Thr(tBu)-Dab(Boc)-Dab(H-Ala(N3))-Tyr(tBu)-dPhe-Tyr(tBu)-Dab(Boc)-Dab(Boc)-OH?,–,–,–,–,"ring closure, isolated yield [5, 6]: 48%"
CC(C)C[C@@H]1NC(=O)[C@@H](Cc2ccccc2)NC(=O)[C@H](Cc2ccc(O)cc2)NC(=O)[C@@H](NC(=O)[C@@H](N)CCN)CCNC(=O)[C@H]([C@@H](C)O)NC(=O)[C@H](CCN)NC(=O)[C@H](Cc2c[nH]c3ccccc23)NC1=O [monomer 1] (H-[Dab][Dab]Y[dF]LW[Dab]T; lactam 2-C),> 50,> 50,> 50,> 50,–
CC(C)C[C@@H]1NC(=O)[C@@H](Cc2ccccc2)NC(=O)[C@H](Cc2ccc(OC(C)(C)C)cc2)NC(=O)[C@@H](NC(=O)[C@H](CCNC(=O)OC(C)(C)C)NC(=O)OCC2c3ccccc3-c3ccccc32)CCNC(=O)[C@H]([C@@H](C)OC(C)(C)C)NC(=O)[C@H](CCNC(=O)OC(C)(C)C)NC(=O)[C@H](Cc2cn(C(=O)OC(C)(C)C)c3ccccc23)NC1=O,–,–,–,–,"ring closure, isolated yield ([5]; from Fmoc-Dab(Boc)-Dab-Tyr(tBu)-dPhe-Leu-Trp(Boc)-Dab(Boc)-Thr(tBu)-OH?, HATU/HOAt/2,4,6-collidine, DCM/DMF, 0.71 mM): 87%"
CC(C)C[C@@H]1NC(=O)[C@@H](Cc2ccccc2)NC(=O)[C@H](Cc2ccc(OC(C)(C)C)cc2)NC(=O)[C@@H](NC(=O)[C@H](CCOC(c2ccccc2)(c2ccccc2)c2ccccc2)NC(=O)OCC2c3ccccc3-c3ccccc32)CCNC(=O)[C@H]([C@@H](C)OC(C)(C)C)NC(=O)[C@H](CCOC(c2ccccc2)(c2ccccc2)c2ccccc2)NC(=O)[C@H](Cc2cn(C(=O)OC(C)(C)C)c3ccccc23)NC1=O,–,–,–,–,"ring closure, isolated yield ([5]; from Fmoc-Hse(Trt)-Dab-Tyr(tBu)-dPhe-Leu-Trp(Boc)-Hse(Trt)-Thr(tBu)-OH?, HATU/HOAt/2,4,6-collidine, DCM/DMF, 0.7 mM): 63%"
Ac-Glu(tBu)-Thr(tBu)-Dab(Boc)-Dab(H-Ala(N3))-Tyr(tBu)-dPhe-Leu-Dab(Boc)-Dab(Boc)-OH?,–,–,–,–,"ring closure, isolated yield [5, 6]: 65%"
CC(=O)N[C@@H](CCC(=O)O)C(=O)N[C@H](C(=O)N[C@@H](CCN)C(=O)N[C@H]1CCNC(=O)[C@H](Cn2cc(CC(=O)N[C@@H](CC(C)C)C(=O)N[C@H]3CCNC(=O)[C@H]([C@@H](C)O)NC(=O)[C@H](CCN)NC(=O)[C@H](CCN)NC(=O)[C@H](CC(C)C)NC(=O)[C@@H](Cc4ccccc4)NC(=O)[C@H](Cc4c[nH]c5ccccc45)NC3=O)nn2)NC(=O)[C@H](CCN)NC(=O)[C@H](CCN)NC(=O)[C@H](Cc2ccc(O)cc2)NC(=O)[C@@H](Cc2ccccc2)NC(=O)[C@H](Cc2ccc(O)cc2)NC1=O)[C@@H](C)O [dimer 7],> 50,> 50,> 50,> 50,"antiviral effect, in words [3]: a hint of antiviral effect"
CC(C)C[C@@H]1NC(=O)[C@@H](Cc2ccccc2)NC(=O)[C@H](Cc2ccc(OC(C)(C)C)cc2)NC(=O)[C@@H](NC(=O)[C@H](CCOC(c2ccccc2)(c2ccccc2)c2ccccc2)NC(=O)OCC2c3ccccc3-c3ccccc32)CCNC(=O)[C@H]([C@@H](C)OC(C)(C)C)NC(=O)[C@H](CCNC(=O)OC(C)(C)C)NC(=O)[C@H](Cc2cn(C(=O)OC(C)(C)C)c3ccccc23)NC1=O,–,–,–,–,"ring closure, isolated yield ([5]; from Fmoc-Hse(Trt)-Dab-Tyr(tBu)-dPhe-Leu-Trp(Boc)-Dab(Boc)-Thr(tBu)-OH?, HATU/HOAt/2,4,6-collidine, DCM/DMF, 0.7 mM): 70%"
